{"source": "ChEMBL document CHEMBL3758089", "about": "“Giffonins J-P, Highly Hydroxylated Cyclized Diarylheptanoids from the Leaves of Corylus avellana Cultivar \"Tonda di Giffoni\"” (J Nat Prod, 2015)", "type_in_all_cases": "functional, cell-based", "key": {"[1]": {"assay": "Cytotoxicity against human Saos2 cells […] after 48 hrs by crystal violet-staining based spectrophotometric assay", "conditions": "SAOS-2, 48 h"}, "[2]": {"assay": "Cytotoxicity against human Saos2 cells […] after 24 hrs by crystal violet-staining based spectrophotometric assay", "conditions": "SAOS-2, 24 h"}, "U2OS [3]": {"test_system": "U2OS", "assay": "Cytotoxicity against human U2OS cells expressing wild-type p53 after 48 hrs by crystal violet-staining based spectrophotometric assay"}, "U2OS [4]": {"test_system": "U2OS", "assay": "Cytotoxicity against human U2OS cells expressing wild-type p53 after 24 hrs by crystal violet-staining based spectrophotometric assay"}}, "data": [{"molecule": "C[C@H]1OC(Oc2c(-c3ccc(O)cc3)oc3cc(O)cc(O)c3c2=O)[C@@H](O)[C@@H](O)[C@@H]1O", "note": "(stereo partly drawn)", "values": [{"measurement": "EC50", "setting": "[1]", "value": "> 150", "unit": "µM"}, {"measurement": "EC50", "setting": "[2]", "value": "> 150", "unit": "µM"}, {"measurement": "EC50", "setting": "U2OS [3]", "value": "> 150", "unit": "µM"}, {"measurement": "EC50", "setting": "U2OS [4]", "value": "> 150", "unit": "µM"}]}, {"molecule": "COc1c2cc(c(OC)c1O)Oc1ccc(cc1)[C@@H](O)C[C@@H](O)/C=C/C=C\\2", "values": [{"measurement": "EC50", "setting": "[1]", "value": "> 150", "unit": "µM"}, {"measurement": "EC50", "setting": "[2]", "value": "> 150", "unit": "µM"}, {"measurement": "EC50", "setting": "U2OS [3]", "value": "> 150", "unit": "µM"}, {"measurement": "EC50", "setting": "U2OS [4]", "value": "> 150", "unit": "µM"}]}, {"molecule": "COc1c2cc(c(OC)c1O)Oc1ccc(cc1)[C@@H](O)C[C@@H](O)CC/C=C\\2", "values": [{"measurement": "EC50", "setting": "[1]", "value": "> 150", "unit": "µM"}, {"measurement": "EC50", "setting": "[2]", "value": "> 150", "unit": "µM"}, {"measurement": "EC50", "setting": "U2OS [3]", "value": "> 150", "unit": "µM"}, {"measurement": "EC50", "setting": "U2OS [4]", "value": "> 150", "unit": "µM"}]}, {"molecule": "C[C@H]1OC(Oc2c(-c3ccc(O)cc3)oc3cc(O)cc(O)c3c2=O)[C@@H](O)[C@@H](O)[C@@H]1OC(=O)/C=C/c1ccc(O)cc1", "note": "(stereo partly drawn)", "values": [{"measurement": "EC50", "setting": "[1]", "value": "> 150", "unit": "µM"}, {"measurement": "EC50", "setting": "[2]", "value": "> 150", "unit": "µM"}, {"measurement": "EC50", "setting": "U2OS [3]", "value": "> 150", "unit": "µM"}, {"measurement": "EC50", "setting": "U2OS [4]", "value": "> 150", "unit": "µM"}]}, {"molecule": "Oc1ccc2cc1-c1cc(ccc1O)C[C@H](O)[C@@H](O)[C@@H](O)C[C@@H](O)C2", "values": [{"measurement": "EC50", "setting": "[1]", "value": "> 150", "unit": "µM"}, {"measurement": "EC50", "setting": "[2]", "value": "> 150", "unit": "µM"}, {"measurement": "EC50", "setting": "U2OS [3]", "value": "> 150", "unit": "µM"}, {"measurement": "EC50", "setting": "U2OS [4]", "value": "> 150", "unit": "µM"}]}, {"molecule": "C[C@H]1OC(Oc2c(-c3cc(O)c(O)c(O)c3)oc3cc(O)cc(O)c3c2=O)[C@@H](O)[C@@H](O)[C@@H]1O", "note": "(stereo partly drawn)", "values": [{"measurement": "EC50", "setting": "[1]", "value": "> 150", "unit": "µM"}, {"measurement": "EC50", "setting": "[2]", "value": "> 150", "unit": "µM"}, {"measurement": "EC50", "setting": "U2OS [3]", "value": "> 150", "unit": "µM"}, {"measurement": "EC50", "setting": "U2OS [4]", "value": "> 150", "unit": "µM"}]}, {"molecule": "O=C1C[C@@H](O)Cc2ccc(O)c(c2)-c2cc(ccc2O)C[C@H](O)[C@H]1O", "values": [{"measurement": "EC50", "setting": "[1]", "value": "> 150", "unit": "µM"}, {"measurement": "EC50", "setting": "[2]", "value": "> 150", "unit": "µM"}, {"measurement": "EC50", "setting": "U2OS [3]", "value": "> 150", "unit": "µM"}, {"measurement": "EC50", "setting": "U2OS [4]", "value": "> 150", "unit": "µM"}]}, {"molecule": "Oc1ccc2cc1-c1cc(ccc1O)C[C@H](O)[C@H](O)C(O)[C@@H](O)[C@H](O)C2", "note": "(stereo partly drawn)", "values": [{"measurement": "EC50", "setting": "[1]", "value": "> 150", "unit": "µM"}, {"measurement": "EC50", "setting": "[2]", "value": "> 150", "unit": "µM"}, {"measurement": "EC50", "setting": "U2OS [3]", "value": "> 150", "unit": "µM"}, {"measurement": "EC50", "setting": "U2OS [4]", "value": "> 150", "unit": "µM"}]}, {"molecule": "O=C1CCc2ccc(O)c(c2)-c2cc(ccc2O)C[C@H](O[C@@H]2O[C@H](CO)[C@H](O)[C@@H](O)[C@H]2O)C[C@H]1O", "values": [{"measurement": "EC50", "setting": "[1]", "value": "> 150", "unit": "µM"}, {"measurement": "EC50", "setting": "[2]", "value": "> 150", "unit": "µM"}, {"measurement": "EC50", "setting": "U2OS [3]", "value": "> 150", "unit": "µM"}, {"measurement": "EC50", "setting": "U2OS [4]", "value": "> 150", "unit": "µM"}]}, {"molecule": "O=C1CCc2ccc(O)c(c2)-c2cc(ccc2O)C[C@H](O)C[C@H]1O", "values": [{"measurement": "EC50", "setting": "[1]", "value": "> 150", "unit": "µM"}, {"measurement": "EC50", "setting": "[2]", "value": "> 150", "unit": "µM"}, {"measurement": "EC50", "setting": "U2OS [3]", "value": "> 150", "unit": "µM"}, {"measurement": "EC50", "setting": "U2OS [4]", "value": "> 150", "unit": "µM"}]}, {"molecule": "C[C@H]1OC(Oc2c(-c3ccc(O)c(O)c3)oc3cc(O)cc(O)c3c2=O)[C@@H](O)[C@@H](O)[C@@H]1O", "note": "(stereo partly drawn)", "values": [{"measurement": "EC50", "setting": "[1]", "value": "> 150", "unit": "µM"}, {"measurement": "EC50", "setting": "[2]", "value": "> 150", "unit": "µM"}, {"measurement": "EC50", "setting": "U2OS [3]", "value": "> 150", "unit": "µM"}, {"measurement": "EC50", "setting": "U2OS [4]", "value": "> 150", "unit": "µM"}]}, {"molecule": "COc1cc(/C=C/C(=O)CC(=O)/C=C/c2ccc(O)c(OC)c2)ccc1O", "note": "[CURCUMIN]", "values": [{"measurement": "EC50", "setting": "[1]", "value": 28.1, "unit": "µM"}, {"measurement": "EC50", "setting": "[2]", "value": 48.6, "unit": "µM"}, {"measurement": "EC50", "setting": "U2OS [3]", "value": 22.8, "unit": "µM"}, {"measurement": "EC50", "setting": "U2OS [4]", "value": 34.4, "unit": "µM"}]}]}
